From publication PMC8725971, “Polycyclic nitrogen heterocycles as potential thymidine phosphorylase inhibitors: synthesis, biological evaluation, and molecular docking study” (Journal of Enzyme Inhibition and Medicinal Chemistry, 2021)
Converted amounts (≈) assume the structure as drawn. Counter-ions that a name gives are not always drawn.

How the values were obtained:
[1] = system: epidermal carcinoma cells (A431); test: Cell proliferation assay (MTT), A431; type: cell-based; details: Homo sapiens, 72 h, read-out: Growth inhibition, A431
Procedure: (§1) The inhibitory effect on cell proliferation was assessed using MTT assay[53] after 72 h of treatment through dose-response assays performed in the 100 µM to 0.1 µM concentration range. The results were expressed as percentages of growth inhibition.
(§2) Cell viability was determined on HUVEC and A431 cell lines using 3–(4,5-dimethylthiazol-2-yl)-2,5-diphenyltetrazolium bromide (MTT; Sigma-Aldrich) assay[53] after treatment with compounds 2d and 2p. A total of 5 × 10^3 cells/well (A431 cell line) or 10^4 cells/well (HUVEC cell line) were plated in a 96-well plate and treated, in duplicates, with compounds 2d and 2p at five concentrations (0.1 µM, 1 μM, 10 μM, 50 μM, 100 μM) for 72 h. Absorbance was read at 570 nm using Labsystem Multiskan MS microplate reader. The results were expressed as percentages of growth inhibition compared to positive control cell growth (100%).

E. coli TP [2] = target: T1, E. coli TP (Escherichia coli, UniProt P07650); test: Enzyme inhibition kinetic study (Lineweaver-Burk); type: biochemical; details: for Km values in the presence of inhibitor / Vmax values in the presence of inhibitor: increasing inhibitor concentration; for Type of TP inhibition: thymidine as substrate, Lineweaver-Burk plots
T1 construct: purchased Sigma Aldrich T2807-1KU
Procedure: The percentage of TP inhibition was determined for different concentrations of the inhibitors and thymidine.
Figure 7. […] Results are presented as means ± SD; SD denoted by error bars (experiments carried out in triplicate).
The TP inhibiting activity at differents concentrations of compound 2d (0, 15, 20, 30 µM) and 2p (0, 4, 6, 8 µM) was evaluated in the presence of different concentrations of thymidine ([…]) in KH2PO4 buffer (pH 7.4).

[3] = system: human umbilical vein endothelial cells (HUVEC); test: Cell proliferation assay (MTT), HUVEC; type: cell-based; details: 72 h, read-out: Growth inhibition, HUVEC
Procedure: as §1, §2

E. coli TP [4] = target: T1, E. coli TP; test: In vitro E. coli thymidine phosphorylase inhibition, spectrophotometric assay at 290 nm; type: biochemical; details: for IC50: 300 µM thymidine, pH 7.4, 25 °C; for inhibition at 50 µM: compound at 50 µM, average of three measurements; for inhibition at 15 µM: compound at 15 µM (maximum solubility)
Procedure: The adopted protocol is a modification of the original method developed by Khan[51]. TP activity and inhibition assays were based on the phosphorolysis of thymidine to thymine, this conversion results in a significant spectrophotometric decrease. At 290 nm and pH 7.4, thymidine has a higher extinction coefficient than thymine (Δε = −480 M^−1 cm^−1). The absorbance at 290 nm was measured every 2 min for 30 min in 96-well plates at 25 °C.
Thymidine was dissolved in buffer (3 mM). […] All experiments were conducted in triplicate.
The method reported by Khan et al.[51] has been adapted to a screening in 96-well plates (200 µL well, UV-Star® 96-well microplate, Greiner). Each well contained 160 µL of 50 mM KH2PO4 buffer (pH 7.4), 0.006 U of E. coli TP (T2807-1KU, Sigma Aldrich), and 20 µL of the tested compound solution. […] The decrease in absorbance due to conversion of thymidine to thymine was followed during 30 min (PowerWave HT Microplate Reader, Biotek) at 25 °C, with one measure every 2 min and a 30 s shaking before each measure.

[5] = Solubility in the incubation medium; details: for solubility: aqueous buffer, kinetic from dmso stock; for Solubility (in words): incubation medium
physchem = details: aqueous buffer, kinetic from dmso stock
E. coli TP [6] = target: T1, E. coli TP; test: Phosphate competition study; type: biochemical; details: saturating thymidine, phosphate 2–30 mM, compound at its IC50
Procedure: The synthesised compounds have been designed as TP inhibitors interacting with the thymidine fixation site. […] E. coli TP activity was determined in the presence of a saturating concentration of thymidine (equivalent to three times the value of the Michaelis-Menten constant [km][52]) and variable amounts of phosphate (2–30 mM). Tested compounds have been used at a concentration corresponding to the IC50.
For this study, the reaction mixture was composed of 160 µL of 10 mM Tris buffer (pH 7.4), 150 mM NaCl, 2 mM EDTA, 0.006 U of E. coli TP, different concentrations of KH2PO4 (2, 5, 10 and 30 mM). Compounds were tested at a concentration close to their IC50. The reaction was initiated by the addition of 20 µL of thymidine (3 mM and 10 mM solutions).

hTP = system: hTP; design: method as in PMID 27783978; details: cited from earlier work

T1 sequence (P07650 whole entry): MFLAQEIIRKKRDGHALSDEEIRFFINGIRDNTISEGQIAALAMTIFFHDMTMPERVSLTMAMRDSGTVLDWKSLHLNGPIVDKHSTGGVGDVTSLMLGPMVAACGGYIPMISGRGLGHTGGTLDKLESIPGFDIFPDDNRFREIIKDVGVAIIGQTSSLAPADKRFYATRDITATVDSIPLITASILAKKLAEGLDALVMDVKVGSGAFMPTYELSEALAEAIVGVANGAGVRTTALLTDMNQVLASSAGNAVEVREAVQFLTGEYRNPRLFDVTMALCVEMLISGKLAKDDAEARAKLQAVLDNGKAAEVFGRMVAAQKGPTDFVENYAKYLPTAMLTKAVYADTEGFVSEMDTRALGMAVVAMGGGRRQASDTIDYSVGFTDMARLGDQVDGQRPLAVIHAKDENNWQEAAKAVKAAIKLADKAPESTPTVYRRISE

Compound | IC50 (E. coli TP [4]) [µM] | inhibition at 50 µM (E. coli TP [4]; 2.5% DMSO) [%] | solubility [5] [µM] | Solubility (in words) [5] | Binding to the phosphate site (E. coli TP [6]) | melting point | other results
COc1ccc2cc3c(=O)[nH]c(=O)[nH]c3nc2c1 [Compound 2d] | 28 | 89 | > 50 | – | – | – | inhibition at 50 µM ([1]; A-431, 50 µM): 57%; Km values in the presence of inhibitor (E. coli TP [2]): increased; Vmax values in the presence of inhibitor (E. coli TP [2]): did not change significantly; Type of TP inhibition (E. coli TP [2]): competitive; inhibition at 100 µM [3]: 56%
O=c1[nH]c(=O)c2cc3cc4c(cc3nc2[nH]1)OCO4 [Compound 2g] | – | – | – | sparingly soluble | – | – | inhibition at 15 µM (E. coli TP [4]; 2.5% DMSO): 0%; solubility (physchem): 15 µM (≈ 3.86 µg/mL)
COc1ccc2c(C)c3c(=O)[nH]c(=O)[nH]c3nc2c1 [Compound 2p] | 26 | 67 | > 50 | – | did not bind to the phosphate site | – | inhibition at 100 µM ([1]; A-431, 100 µM): 50%; Km values in the presence of inhibitor (E. coli TP [2]): increased; Vmax values in the presence of inhibitor (E. coli TP [2]): did not change significantly; Type of TP inhibition (E. coli TP [2]): competitive; inhibition at 100 µM [3]: 31%
O=C1c2cc3cc4c(cc3nc2C(=O)N1CCCCCCn1cc(Br)c(=O)[nH]c1=O)OCO4 [Compound 16b, 2-[6-(5-Bromo-2,4-dioxo-3,4-dihydropyrimidine-1(2H)-yl)hexyl]-6,7-methylenedioxy-2H-pyrrolo[3,4-b]quinoline-1,3-dione] | – | – | 12.5 (≈ 6.44 µg/mL) | less soluble | – | 282 to 283 °C | inhibition at 12.5 µM (E. coli TP [4]; compound at 12.5 µM (maximum solubility), 2.5% DMSO): 30%
O=C1c2cc3cc4c(cc3nc2C(=O)N1Cc1cc(=O)[nH]c(=O)[nH]1)OCO4 [Compound 22, 2-[(2,6-Dioxo-1,2,3,6-tetrahydropyrimidin-4-yl)methyl]-6,7-methylenedioxy-1H-pyrrolo[3,4-b]quinoline-1,3(2H)-dione] | – | – | 15 (≈ 5.49 µg/mL) | less soluble | – | 407 to 409 °C (dec.) | inhibition at 15 µM (E. coli TP [4]; 2.5% DMSO): 25%
O=C1c2cc3cc4c(cc3nc2C(=O)N1Cc1[nH]c(=O)[nH]c(=O)c1Br)OCO4 [Compound 23b, 2-[(5-Bromo-2,6-dioxo-1,2,3,6-tetrahydropyrimidin-4-yl)methyl]-6,7-methylenedioxy-1H-pyrrolo[3,4-b]quinoline-1,3(2H)-dione] | – | 30 | 50 (≈ 22.3 µg/mL) | less soluble | did not bind to the phosphate site | 370 to 372 °C (dec.) | –
O=C1c2cc3c(=O)[nH]c(=O)[nH]c3nc2C(=O)N1Cc1ccccc1 [Compound 28a] | 62 | 44 | > 50 | – | did not bind to the phosphate site | – | –
O=C(NCc1cc(=O)[nH]c(=O)[nH]1)c1cc2c(=O)[nH]c(=O)[nH]c2nc1C(=O)NCc1cc(=O)[nH]c(=O)[nH]1 [Compound 30, N^6,N^7-Bis((2,6-dioxo-1,2,3,6-tetrahydropyrimidin-4-yl)methyl)-2,4-dioxo-1,2,3,4-tetrahydropyrido[2,3-d]pyrimidine-6,7-dicarboxamide] | 87 | 31 | > 50 | – | did not bind to the phosphate site | 259 to 261 °C (dec.) | –
N=C1CCCN1Cc1[nH]c(=O)[nH]c(=O)c1Cl [TPI, 5-chloro-6-[1-(2-iminopyrrolidinyl)methyl]uracil hydrochloride] | – | – | – | – | – | – | IC50 (hTP): 0.035 µM
